Starred links: 1 amine or outer side, 2 acyl side, 3 side chain; linkers in the order of their positions; H or OH if unused. Non-standard residues stand in square brackets, D forms with d. Residues, ends and D or L forms follow the SMILES beside them. Groups on a side chain read outwards from the residue. *: point of attachment. d(γGlu) = O=C(O)[C@@H](CCC(=O)[*:2])N[*:1]; C18 diacid = O=C(O)CCCCCCCCCCCCCCCCC(=O)*; AEEA = NCCOCCOCC(=O)O; Aib = CC(C)(N)C(=O)O
target: hGLP-1R (Homo sapiens, UniProt P43220); test: Cell agonistic activity at GLP-1 receptor (Example 7); assay type: cell-based; settings: not given
Sequence (P43220 24-463): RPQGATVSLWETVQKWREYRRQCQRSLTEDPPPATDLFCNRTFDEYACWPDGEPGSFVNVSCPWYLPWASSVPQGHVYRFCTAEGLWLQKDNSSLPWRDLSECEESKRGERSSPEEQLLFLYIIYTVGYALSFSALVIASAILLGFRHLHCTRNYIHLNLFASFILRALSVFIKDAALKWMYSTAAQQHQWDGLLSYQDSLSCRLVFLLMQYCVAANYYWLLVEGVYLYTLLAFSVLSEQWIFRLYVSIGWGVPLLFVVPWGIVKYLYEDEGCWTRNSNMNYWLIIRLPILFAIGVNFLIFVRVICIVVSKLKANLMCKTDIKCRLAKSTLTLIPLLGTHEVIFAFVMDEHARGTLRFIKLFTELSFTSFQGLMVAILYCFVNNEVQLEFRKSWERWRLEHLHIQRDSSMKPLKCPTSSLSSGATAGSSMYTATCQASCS

Row | Compound | EC50
1 | CC[C@H](C)[C@H](NC(=O)[C@H](CO)NC(=O)[C@H](Cc1ccc(O)cc1)NC(=O)[C@H](CC(=O)O)NC(=O)[C@H](CO)NC(=O)[C@@H](NC(=O)[C@H](Cc1ccccc1)NC(=O)[C@@H](NC(=O)CNC(=O)[C@H](CCC(=O)O)NC(=O)C(C)(C)NC(=O)[C@@H](N)Cc1ccc(O)cc1)[C@@H](C)O)[C@@H](C)CC)C(=O)N[C@@H](C)C(=O)N[C@@H](CC(C)C)C(=O)N[C@@H](CC(=O)O)C(=O)N[C@@H](CCCNC(=N)N)C(=O)N[C@H](C(=O)N[C@@H](Cc1c[nH]cn1)C(=O)N[C@@H](CCC(N)=O)C(=O)N[C@@H](CCC(=O)O)C(=O)N[C@@H](CC(=O)O)C(=O)N[C@@H](Cc1ccccc1)C(=O)N[C@H](C(=O)N[C@@H](CCCCN)C(=O)N[C@@H](Cc1c[nH]c2ccccc12)C(=O)N[C@@H](CC(C)C)C(=O)N[C@@H](CC(C)C)C(=O)N[C@@H](C)C(=O)N[C@@H](CCC(N)=O)C(=O)N[C@@H](CCCNC(=N)N)C(=O)NCC(=O)O)C(C)C)[C@@H](C)CC [Sequence 11] (H-Y[Aib]EGTFISDYSIALDRIHQEDFVKWLLAQRG-OH; N-terminus and C-terminus assumed) | > 0.1 nM
2 | CC[C@H](C)[C@H](NC(=O)[C@H](CO)NC(=O)[C@H](Cc1ccc(O)cc1)NC(=O)[C@H](CC(=O)O)NC(=O)[C@H](CO)NC(=O)[C@@H](NC(=O)[C@H](Cc1ccccc1)NC(=O)[C@@H](NC(=O)CNC(=O)[C@H](CCC(=O)O)NC(=O)C(C)(C)NC(=O)[C@@H](N)Cc1ccc(O)cc1)[C@@H](C)O)[C@@H](C)CC)C(=O)N[C@@H](C)C(=O)N[C@@H](CC(C)C)C(=O)N[C@@H](CC(=O)O)C(=O)N[C@@H](CCCNC(=N)N)C(=O)N[C@H](C(=O)N[C@@H](Cc1c[nH]cn1)C(=O)N[C@@H](CCC(N)=O)C(=O)N[C@@H](CCC(=O)O)C(=O)N[C@@H](CC(=O)O)C(=O)N[C@@H](Cc1ccccc1)C(=O)N[C@H](C(=O)N[C@@H](CC(N)=O)C(=O)N[C@@H](Cc1c[nH]c2ccccc12)C(=O)N[C@@H](CC(C)C)C(=O)N[C@@H](CC(C)C)C(=O)N[C@@H](C)C(=O)N[C@@H](CCC(N)=O)C(=O)N[C@@H](CCCCN)C(=O)NCC(=O)O)C(C)C)[C@@H](C)CC [Sequence 12] (H-Y[Aib]EGTFISDYSIALDRIHQEDFVNWLLAQKG-OH; N-terminus and C-terminus assumed) | > 0.1 nM
3 | CC[C@H](C)[C@H](NC(=O)[C@H](CO)NC(=O)[C@H](Cc1ccc(O)cc1)NC(=O)[C@H](CC(=O)O)NC(=O)[C@H](CO)NC(=O)[C@@H](NC(=O)[C@H](Cc1ccccc1)NC(=O)[C@@H](NC(=O)CNC(=O)[C@H](CCC(=O)O)NC(=O)C(C)(C)NC(=O)[C@@H](N)Cc1ccc(O)cc1)[C@@H](C)O)[C@@H](C)CC)C(=O)N[C@@H](C)C(=O)N[C@@H](CC(C)C)C(=O)N[C@@H](CC(=O)O)C(=O)N[C@@H](CCCCN)C(=O)N[C@H](C(=O)N[C@@H](Cc1c[nH]cn1)C(=O)N[C@@H](CCC(N)=O)C(=O)N[C@@H](CCC(N)=O)C(=O)N[C@@H](CC(=O)O)C(=O)N[C@@H](Cc1ccccc1)C(=O)N[C@H](C(=O)N[C@@H](CC(N)=O)C(=O)N[C@@H](Cc1c[nH]c2ccccc12)C(=O)N[C@@H](CC(C)C)C(=O)N[C@@H](CC(C)C)C(=O)N[C@@H](C)C(=O)N[C@@H](CCC(N)=O)C(=O)N[C@@H](CCCNC(=N)N)C(=O)NCC(=O)O)C(C)C)[C@@H](C)CC [Sequence 7] (H-Y[Aib]EGTFISDYSIALDKIHQQDFVNWLLAQRG-OH; N-terminus and C-terminus assumed) | > 0.1 nM
4 | CC[C@H](C)[C@H](NC(=O)[C@H](CO)NC(=O)[C@H](Cc1ccc(O)cc1)NC(=O)[C@H](CC(=O)O)NC(=O)[C@H](CO)NC(=O)[C@@H](NC(=O)[C@H](Cc1ccccc1)NC(=O)[C@@H](NC(=O)CNC(=O)[C@H](CCC(=O)O)NC(=O)C(C)(C)NC(=O)[C@@H](N)Cc1ccc(O)cc1)[C@@H](C)O)[C@@H](C)CC)C(=O)N[C@@H](C)C(=O)N[C@@H](CC(C)C)C(=O)N[C@@H](CC(=O)O)C(=O)N[C@@H](CCCNC(=N)N)C(=O)N[C@@H](CC(C)C)C(=O)N[C@@H](Cc1c[nH]cn1)C(=O)N[C@@H](CCC(N)=O)C(=O)N[C@@H](CCC(N)=O)C(=O)N[C@@H](CC(=O)O)C(=O)N[C@@H](Cc1ccccc1)C(=O)N[C@H](C(=O)N[C@@H](CCCCN)C(=O)N[C@@H](Cc1c[nH]c2ccccc12)C(=O)N[C@@H](CC(C)C)C(=O)N[C@@H](CC(C)C)C(=O)N[C@@H](C)C(=O)N[C@@H](CCC(N)=O)C(=O)N[C@@H](CCCNC(=N)N)C(=O)NCC(=O)O)C(C)C [Sequence 17] (H-Y[Aib]EGTFISDYSIALDRLHQQDFVKWLLAQRG-OH; N-terminus and C-terminus assumed) | > 0.1 nM
5 | CC[C@H](C)[C@H](NC(=O)[C@H](CCC(=O)O)NC(=O)[C@H](CC(=O)O)NC(=O)[C@H](CC(C)C)NC(=O)C(C)(C)NC(=O)[C@@H](NC(=O)[C@H](CO)NC(=O)[C@H](Cc1ccc(O)cc1)NC(=O)[C@H](CC(=O)O)NC(=O)[C@H](CO)NC(=O)[C@@H](NC(=O)[C@H](Cc1ccccc1)NC(=O)[C@@H](NC(=O)CNC(=O)[C@H](CCC(=O)O)NC(=O)C(C)(C)NC(=O)[C@@H](N)Cc1ccc(O)cc1)[C@@H](C)O)[C@@H](C)CC)[C@@H](C)CC)C(=O)N[C@@H](Cc1c[nH]cn1)C(=O)N[C@@H](CCC(N)=O)C(=O)N[C@@H](CCCCN)C(=O)N[C@@H](CC(=O)O)C(=O)N[C@@H](Cc1ccccc1)C(=O)N[C@H](C(=O)N[C@@H](CCCCN)C(=O)N[C@@H](Cc1c[nH]c2ccccc12)C(=O)N[C@@H](CC(C)C)C(=O)N[C@@H](CC(C)C)C(=O)N[C@@H](C)C(=O)N[C@@H](CCC(N)=O)C(=O)N[C@@H](CCCCN)C(=O)NCC(=O)O)C(C)C [Sequence 2] (H-Y[Aib]EGTFISDYSI[Aib]LDEIHQKDFVKWLLAQKG-OH; N-terminus and C-terminus assumed) | > 0.1 nM
6 | CC[C@H](C)[C@H](NC(=O)[C@H](CO)NC(=O)[C@H](Cc1ccc(O)cc1)NC(=O)[C@H](CC(=O)O)NC(=O)[C@H](CO)NC(=O)[C@@H](NC(=O)[C@H](Cc1ccccc1)NC(=O)[C@@H](NC(=O)CNC(=O)[C@H](CCC(=O)O)NC(=O)C(C)(C)NC(=O)[C@@H](N)Cc1ccc(O)cc1)[C@@H](C)O)[C@@H](C)CC)C(=O)N[C@@H](C)C(=O)N[C@@H](CC(C)C)C(=O)N[C@@H](CC(=O)O)C(=O)N[C@@H](CCCNC(=N)N)C(=O)N[C@@H](CC(C)C)C(=O)N[C@@H](Cc1c[nH]cn1)C(=O)N[C@@H](CCC(N)=O)C(=O)N[C@@H](CCC(=O)O)C(=O)N[C@@H](CC(=O)O)C(=O)N[C@@H](Cc1ccccc1)C(=O)N[C@H](C(=O)N[C@@H](CC(N)=O)C(=O)N[C@@H](Cc1c[nH]c2ccccc12)C(=O)N[C@@H](CC(C)C)C(=O)N[C@@H](CC(C)C)C(=O)N[C@@H](C)C(=O)N[C@@H](CCC(N)=O)C(=O)N[C@@H](CCCCN)C(=O)NCC(=O)O)C(C)C [Sequence 16] (H-Y[Aib]EGTFISDYSIALDRLHQEDFVNWLLAQKG-OH; N-terminus and C-terminus assumed) | > 0.1 nM
7 | CC[C@H](C)[C@H](NC(=O)[C@H](CCCCN)NC(=O)[C@H](CC(=O)O)NC(=O)[C@H](CC(C)C)NC(=O)C(C)(C)NC(=O)[C@@H](NC(=O)[C@H](CO)NC(=O)[C@H](Cc1ccc(O)cc1)NC(=O)[C@H](CC(=O)O)NC(=O)[C@H](CO)NC(=O)[C@@H](NC(=O)[C@H](Cc1ccccc1)NC(=O)[C@@H](NC(=O)CNC(=O)[C@H](CCC(=O)O)NC(=O)C(C)(C)NC(=O)[C@@H](N)Cc1ccc(O)cc1)[C@@H](C)O)[C@@H](C)CC)[C@@H](C)CC)C(=O)N[C@@H](Cc1c[nH]cn1)C(=O)N[C@@H](CCC(N)=O)C(=O)N[C@@H](CCC(=O)O)C(=O)N[C@@H](CC(=O)O)C(=O)N[C@@H](Cc1ccccc1)C(=O)N[C@H](C(=O)N[C@@H](CCCCN)C(=O)N[C@@H](Cc1c[nH]c2ccccc12)C(=O)N[C@@H](CC(C)C)C(=O)N[C@@H](CC(C)C)C(=O)N[C@@H](C)C(=O)N[C@@H](CCC(N)=O)C(=O)N[C@@H](CCCCN)C(=O)NCC(=O)O)C(C)C [Sequence 1] (H-Y[Aib]EGTFISDYSI[Aib]LDKIHQEDFVKWLLAQKG-OH; N-terminus and C-terminus assumed) | > 0.1 nM
8 | CC[C@H](C)[C@H](NC(=O)[C@H](CO)NC(=O)[C@H](Cc1ccc(O)cc1)NC(=O)[C@H](CC(=O)O)NC(=O)[C@H](CO)NC(=O)[C@@H](NC(=O)[C@H](Cc1ccccc1)NC(=O)[C@@H](NC(=O)CNC(=O)[C@H](CCC(=O)O)NC(=O)C(C)(C)NC(=O)[C@@H](N)Cc1ccc(O)cc1)[C@@H](C)O)[C@@H](C)CC)C(=O)N[C@@H](C)C(=O)N[C@@H](CC(C)C)C(=O)N[C@@H](CC(=O)O)C(=O)N[C@@H](CCCCN)C(=O)N[C@@H](CC(C)C)C(=O)N[C@@H](Cc1c[nH]cn1)C(=O)N[C@@H](CCC(N)=O)C(=O)N[C@@H](CCC(N)=O)C(=O)N[C@@H](CC(=O)O)C(=O)N[C@@H](Cc1ccccc1)C(=O)N[C@H](C(=O)N[C@@H](CC(N)=O)C(=O)N[C@@H](Cc1c[nH]c2ccccc12)C(=O)N[C@@H](CC(C)C)C(=O)N[C@@H](CC(C)C)C(=O)N[C@@H](C)C(=O)N[C@@H](CCC(N)=O)C(=O)N[C@@H](CCCNC(=N)N)C(=O)NCC(=O)O)C(C)C [Sequence 8] (H-Y[Aib]EGTFISDYSIALDKLHQQDFVNWLLAQRG-OH; N-terminus and C-terminus assumed) | > 0.1 nM

same assay, conditions: read-out: hGLP-1R EC50

Row | Compound | EC50
9 | CC[C@H](C)[C@H](NC(=O)[C@H](CO)NC(=O)[C@H](Cc1ccc(O)cc1)NC(=O)[C@H](CC(=O)O)NC(=O)[C@H](CO)NC(=O)[C@@H](NC(=O)[C@H](Cc1ccccc1)NC(=O)[C@@H](NC(=O)CNC(=O)[C@H](CCC(=O)O)NC(=O)C(C)(C)NC(=O)[C@@H](N)Cc1ccc(O)cc1)[C@@H](C)O)[C@@H](C)CC)C(=O)N[C@@H](C)C(=O)N[C@@H](CC(C)C)C(=O)N[C@@H](CC(=O)O)C(=O)N[C@@H](CCCCNC(=O)COCCOCCNC(=O)COCCOCCNC(=O)CC[C@@H](NC(=O)CCCCCCCCCCCCCCCCC(=O)O)C(=O)O)C(=O)N[C@@H](CC(C)C)C(=O)N[C@@H](Cc1c[nH]cn1)C(=O)N[C@@H](CCC(N)=O)C(=O)N[C@@H](CCC(=O)O)C(=O)N[C@@H](CC(=O)O)C(=O)N[C@@H](Cc1ccccc1)C(=O)N[C@H](C(=O)N[C@@H](CC(N)=O)C(=O)N[C@@H](Cc1c[nH]c2ccccc12)C(=O)N[C@@H](CC(C)C)C(=O)N[C@@H](CC(C)C)C(=O)N[C@@H](C)C(=O)N[C@@H](CCC(N)=O)C(=O)N[C@@H](CCCNC(=N)N)C(=O)NCC(=O)O)C(C)C [Peptide 10, N-{ε-16}-18-{[(23R)-23-carboxyl-2,11,20-trioxo-10,19-diaza-4,7,13,16-tetraoxatricosyl-23-yl]amino}-18-oxooctadecanoic acid acetyl-[Aib2, L14, L17, E20, R30]-hGIP(1-31)] (H-Y[Aib]EGTFISDYSIALDK([AEEA-AEEA-d(γGlu)-C18 diacid])LHQEDFVNWLLAQRG-OH) | > 0.1 nM

— patent US20240239863A1, “GIP RECEPTOR AGONIST AND USE THEREOF” (HANGZHOU ZHONGMEIHUADONG PHARMACEUTICAL CO., LTD., priority 2022, published 2024)
